Data taken from patent US7723301B2, “Pharmaceutical compositions comprising an anti-teratogenic compound and applications of the same” (The Board of Trustees of the University of Arkansas, priority 2007, dated 2010).

Experiments:
[1] = tested on: chicken embryos; experiment: Thalidomide-induced limb truncations and microphthalmia in chicken embryos; type: in vivo
Description: Fertilized eggs were purchased from Deindl GmbH, Rietberg-Varensell. They were incubated at 38° C. in a humidified incubator, windowed after one day and staged according to Hamburger and Hamilton (HH stage). Racemic thalidomide (Celgene), thalidomide enantiomers or phthalimide (Sigma) were dissolved in DMSO at 5 mg/ml and further diluted in PBS. Embryos were exposed to drugs by dropping 15 μg-3 mg thalidomide or phthalimide per kg egg weight (about 1-200 μg per embryo) in 50 μl DMSO/PBS as a single dose at HH stages 0-13 onto the embryo. Thalidomide (50 μg) or phthalimide (50 μg) in 10 μl DMSO was injected into the extra-embryonic blood vessels of HH 19 stage embryos. […] Recombinant Noggin, Dkk1 specific goat IgG (R&D Systems) or serum of non-immunized goats (Sigma) was dissolved in 0.1% BSA/0.01% Fast Green/PBS. Noggin (10 or 100 ng), Dkk1 specific goat IgG (5 or 50 ng) or serum of non-immunized goats (50 ng) was applied to a single embryo at HH stages 17-19 by injecting a 10 μl solution through the extra-embryonic membranes.
The morphology of the limbs was studied in specimens fixed in 5% trichloroacetic acid and stained for cartilage with alcian green as described (3).

[2] = tested on: primary chicken embryonic fibroblasts (CEFs); experiment: Cell death by trypan blue staining in CEFs; type: cell-based; details: 38.7 μM (10 μg/ml), six hours
Description: (§1) Primary limb bud cells (PLBCs) were isolated from 60 pooled wing and hindlimb buds of HH stages 23/24 embryos. Fibroblasts were gained from HH stage 34 chicken embryos or from 13.5 d.p.c. mouse embryos. Human embryonic fibroblasts were provided by Matthias Maass (2). Before adding reagents, all cell types were cultured for 16 hours in D-MEM (Gibco) plus 10% fetal calf serum (FCS) and 2% chicken serum. Treatment with thalidomide, phthalimide, recombinant human (rh) BMP4 (300 ng/ml; R&D Systems), juglone (5 μM; Sigma), recombinant mouse Noggin (30, 300, 1000 ng/ml in FIG. 4B; 300 ng/ml in FIGS. 4C and 6A), anti-human-DKK1 antibody (35, 350 and 1000 ng/ml in FIG. 4B; 350 ng/ml in FIGS. 4C and 6A), LiCl (3, 30, 60 mM in FIG. 4B; 30 mM in FIGS. 4C, 6A and 6C) and/or (2Z,3E)-6-Bromoindirubin-3-oxime (BIO, Gsk3-Inhibitor IX; 50, 500, 1000 nM in FIG. 4B; 500 nM in FIG. 6A; 50 and 500 nM in FIG. 6C; Calbiochem) were performed in Optimem1 (Invitrogen) plus 1% FCS. Unless otherwise noted, all treatments with thalidomide and rh-BMP4 and associated controls were done for six hours. Inhibitors were applied once at the beginning of incubation with the exception of LiCl that was added 150 minutes before harvesting the cells for further analyses. Pre-treatment with phenyl-N-t-butylnitrone (PBN; 2 mM; Sigma) was performed for one hour. Incubations with juglone were performed for two hours, if applicable, after a pre-treatment with PBN, Noggin, anti-Dkk1 antibody, LiCl or Gsk3-Inhibitor IX for one hour.
Cell death in PLBCs, CEFs, MEFs and HEFs was detected by staining with trypan blue (0.1% (w/v) in PBS; Sigma) for 90 seconds. Cells were counted in a counting chamber to determine the ratio of dead to live cells.

[3] = tested on: Bmp4 and Dkk1 expression in HEFs; experiment: sqRT-PCR of Bmp4 and Dkk1 expression in HEFs; type: cell-based, human; details: 10 μg/ml, six hours
Description: as §1
RNA isolation, semi-quantitative RT-PCRs and whole mount in situ hybridizations were performed according to standard protocols that are well known within the art. RNA was isolated using TRIZOL (Gibco BRL) followed by DNAseI digestion. First strand synthesis was carried out with the Expand RT System (Roche) according to the manufacturer's instructions. PCR amplification was carried out primers and conditions within the knowledge of a person having skill in the relevant art. Quantifications were performed using NIH Image 1.62.

[4] = chicken, in vivo, 7 day of incubation

## O=C1CCC(N2C(=O)c3ccccc3C2=O)C(=O)N1 (racemic) [thalidomide, 2-(2,6-dioxo-3-piperidyl)isoindole-1,3-dione]
[1]; 750 μg/kg egg weight, HH stages 4/5, first seven days
  embryonic lethality in comparison to solvent controls: did not significantly increase embryonic lethality
[1]; applied at HH stages 4/5
  EC50 for induction of limb and eye defects: 50 μg/kg egg weight
[1]; chicken, in vivo
  dose inducing a maximum of limb truncations and microphthalmia: 750 μg/kg egg weight
  other limb malformations (fusion at the level of the metacarpal cartilage, abducted legs), frequency in total: observed, but at a much lower frequency (in total 4%, data not shown).
[1]; [4]
  embryos showing both limb abnormalities and microphthalmia: about 5%
  embryos with uni- or bilateral microphthalmia: 21%
[1]; in vivo
  effect of increasing the amount up to 3 mg/kg egg weight: neither influenced the quality nor the quantity of limb truncations or microphthalmia
  frequency of limb truncations and microphthalmia on application at later stages: clearly reduced the frequency of limb truncations and microphthalmia
[2]
  induction of PCD in CEFs compared to controls: six-fold
[3]
  expression of Bmp4 and Dkk1 in HEFs: induced the expression
